Patent publication US12697335B2, “Method for treating immune toxicities induced by immune checkpoint inhibitors” (ASSISTANCE PUBLIQUE—HÔPITAUX DE PARIS, priority 2020, dated 2026)

Columns and labels:
[1] = Eleven ICI patients with irAE treated with ruxolitinib in combination with corticosteroids and abatacept
[2] = human, in vivo; cited from earlier work
[3] = Adverse events on nivolumab second-line therapy for metastatic pulmonary adenocarcinoma; assay type: in vivo, human; conditions: after 2 treatments with nivolumab (4 weeks after treatment initiation)
Description: Myositis was suspected due to increased creatine kinase levels and confirmed by muscle biopsy. Myocarditis was confirmed with troponin increase, premature ventricular contractions and deterioration of left-ventricular ejection fraction with no signs of acute coronary syndrome on angiogram.

N#CC[C@H](C1CCCC1)n1cc(-c2ncnc3[nH]ccc23)cn1 [Ruxolitinib, (3R)-3-Cyclopentyl-3-[4-(7H-pyrrolo[2,3-d]pyrimidin-4-yl)pyrazol-1-yl]propanenitrile]
deaths not related to irAE (hemorrhagic choc n=1; COVID19 n=2) ([1]; first 3 months follow-up, 11 patients): three
evolution of concurrent irAE ([1]; first 3 months follow-up, 11 patients, myasthenia like symptoms, hepatitis, thyroiditis): evolved favorably
death related to an irAE ([1]; human, in vivo): no death
effect on tumor progression (human, in vivo): no effect
tumor progression (human, in vivo): no evidence of tumor progression
relief of myotoxicity (oral ruxolitinib, summary of the case): symptomatic relief
oculomotor disorders (person, ruxolitinib 15 mg twice daily): improvement
troponin (person, ruxolitinib 15 mg twice daily, corticosteroids tapered): prompt decrease
myotoxicity outcome (ruxolitinib continued for 1 month at 15 mg twice daily): complete resolution

abatacept
effect in patients with myotoxicity [2]: positive effect

nivolumab: PD-1 inhibitor: IgG4 PD1 antibody
adverse events developed [3]: developed myalgia, diplopia and bilateral ptosis
